Patent US20070197577A1 (priority 2003, published 2007)

Columns and labels:
anthrax = settings: monkey, in vivo; cited from earlier work

| Compound | monkeys that survived a lethal aerosol challenge (anthrax) | melting point [°C] |
| --- | --- | --- |
| O=C(O)c1cn(C2CC2)c2cc(N3CCNCC3)c(F)cc2c1=O [ciprofloxacin] | 8 of 9 |  |
| CC(C)CC(NCC(=O)NO)C(=O)NC(Cc1ccc2ccccc2c1)C(=O)NC(C)C(N)=O (stereo not shown) |  | 205 to 212 |
| penicillin | 7 of 10 |  |
| O=C(O)c1cccc(N(CCc2ccccc2)c2nnc(-c3cccc(Oc4cccc(C(F)(F)F)c4)c3)s2)c1 |  | 92 to 93 |
